{"source": "patent US20160050935A1", "about": "“METHOD FOR CONTROLLING PARTICLE SIZE OF SILVER PARTICLES, SILVER PARTICLES, ANTIMICROBIAL AGENT CONTAINING SLIVER PARTICLES, AND USE THEREOF” (SOFSERA CORPORATION, priority 2013, published 2016)", "system": "Escherichia coli (Gram-negative bacteria)", "assay": "Antibacterial test of silver particles-2 (bacteria count in tube 1 over time)", "type": "cell-based", "method": "A test similar to that in <5. Antibacterial test of silver particles-1> was carried out with use of Escherichia coli (Gram-negative bacteria), which is one of model organisms and by which bacteria are typified. Note that the test was carried out by a method similar to that in <5. Antibacterial test of silver particles-1>, except that a kind of the bacteria used in the test was changed. Therefore, the method of the test will not be described here, and only results of the test will be described.\nFIG. 10 illustrates results of the test carried out with use of “1 mM CDT-Ag,” “5 mM CDT-Ag,” and “10 mM CDT-Ag.” More specifically, FIG. 10 illustrates results of, “0 (zero) h,” “0.5 h,” “1 (one) h,” and “2 h” after the silver particles were mixed with the bacteria, (i) taking out an LB culture medium from each of tubes 1 through 8 stored in an incubator and (ii) carrying out an operation K), that is, a result of incubating the bacteria at 37° C. for 24 hours by storing a petri dish, prepared in the operation K), in the incubator.", "data": [{"smiles": "O=C(O)CCCCCCCCCCS", "note": "[Free CDT, 10-carboxy-1-decanthiol]", "values": [{"measurement": "bacteria count in the tube 1 (count at 0 h = 1)", "setting": "0 h (set to 1 by assumption)", "result": 1}, {"measurement": "bacteria count in the tube 1 (count at 0 h = 1)", "setting": "0.5 h after mixing", "result": 1}, {"measurement": "bacteria count in the tube 1 (count at 0 h = 1)", "setting": "1 h after mixing", "result": 1}, {"measurement": "bacteria count in the tube 1 (count at 0 h = 1)", "setting": "2 h after mixing", "result": 1}, {"measurement": "antibacterial activity", "setting": "in words, from FIG. 10 and Table 3", "result": "did not have antibacterial activity"}]}]}
